Results published in ChEMBL document CHEMBL3868620, “Synthesis, DNA binding and antitrypanosomal activity of benzimidazole analogues of DAPI” (Bioorg Med Chem Lett, 2016).
pIC50: −log10 of the molar value.

system: not listed separately; assay: Selectivity index, ratio OF IC50 for rat L6 cells to IC50 for bloodstream form of Trypanosoma brucei rhodesiense STIB900; format: functional; settings: not given

| Compound | Ratio IC50 |
| --- | --- |
| CCn1c(-c2ccc(C(=N)N)cc2)nc2cc(C(=N)N)ccc21 | >3234 |
| c1cc2nc(-c3ccc(C4=NCCN4)s3)[nH]c2cc1C1=NCCN1 | 1925 |
| N=C(N)c1ccc(-c2cc3ccc(C(=N)N)cc3[nH]2)cc1 [DAPI] | 48 |
| N=C(N)c1ccc2nc(-c3ccc(C(=N)N)o3)[nH]c2c1 | 3229 |
| Cn1c(-c2ccc(C(=N)N)cc2)nc2cc(C(=N)N)ccc21 | >11266 |
| N=C(N)c1ccc(-c2nc3cc(C(=N)N)ccc3[nH]2)cc1 | 848 |
| CCCn1c(-c2ccc(C(=N)N)cc2)nc2cc(C(=N)N)ccc21 | >4419 |
| N=C(N)c1ccc(-c2nc3cc(C(=N)N)ccc3n2C2CCCCC2)cc1 | >306 |
| N=C(N)c1ccc(-c2nc3ccc(C(=N)N)cc3n2O)cc1 | >25 |
| N=C(N)c1ccc2nc(-c3ccc(C(=N)N)s3)[nH]c2c1 | 1405 |

system: not listed separately; assay: Binding affinity to poly(dA-dT)n DNA (unknown origin) assessed as change in melting temperature at 0.3 molar ratio of compound:DNA by spectrophotometric analysis; settings: not given

| Compound | ΔTm [°C] |
| --- | --- |
| CCn1c(-c2ccc(C(=N)N)cc2)nc2cc(C(=N)N)ccc21 | 5.5 |
| c1cc2nc(-c3ccc(C4=NCCN4)s3)[nH]c2cc1C1=NCCN1 | 26 |
| N=C(N)c1ccc(-c2cc3ccc(C(=N)N)cc3[nH]2)cc1 [DAPI] | > 27 |
| N=C(N)c1ccc2nc(-c3ccc(C(=N)N)o3)[nH]c2c1 | 10.1 |
| Cn1c(-c2ccc(C(=N)N)cc2)nc2cc(C(=N)N)ccc21 | 8 |
| N=C(N)c1ccc(-c2nc3cc(C(=N)N)ccc3[nH]2)cc1 | 24.7 |
| CCCn1c(-c2ccc(C(=N)N)cc2)nc2cc(C(=N)N)ccc21 | 2.5 |
| N=C(N)c1ccc(-c2nc3cc(C(=N)N)ccc3n2C2CCCCC2)cc1 | 2 |
| N=C(N)c1ccc(-c2nc3ccc(C(=N)N)cc3n2O)cc1 | 1.1 |
| N=C(N)c1ccc2nc(-c3ccc(C(=N)N)s3)[nH]c2c1 | 25.2 |

system: Trypanosoma brucei rhodesiense; assay: Antitrypanosomal activity against bloodstream form of Trypanosoma brucei rhodesiense STIB900 after 70 hrs by Alamar blue assay; format: functional; settings: STIB900, 70 h

| Compound | pIC50 |
| --- | --- |
| CCn1c(-c2ccc(C(=N)N)cc2)nc2cc(C(=N)N)ccc21 | 7.19 |
| c1cc2nc(-c3ccc(C4=NCCN4)s3)[nH]c2cc1C1=NCCN1 | 7.17 |
| N=C(N)c1ccc2nc(-c3ccc(C(=N)N)o3)[nH]c2c1 | 7.32 |
| Cn1c(-c2ccc(C(=N)N)cc2)nc2cc(C(=N)N)ccc21 | 7.82 |
| N=C(N)c1ccc(-c2nc3cc(C(=N)N)ccc3[nH]2)cc1 | 7.51 |
| CCCn1c(-c2ccc(C(=N)N)cc2)nc2cc(C(=N)N)ccc21 | 7.51 |
| N=C(N)c1ccc(-c2nc3cc(C(=N)N)ccc3n2C2CCCCC2)cc1 | 6.28 |
| N=C(N)c1ccc(-c2nc3ccc(C(=N)N)cc3n2O)cc1 | 5.07 |
| N=C(N)c1ccc2nc(-c3ccc(C(=N)N)s3)[nH]c2c1 | 7.72 |

system: not listed separately; assay: Cytotoxicity against rat L6 cells assessed as reduction in cell viability after 70 hrs by Alamar blue assay; format: toxicity; settings: not given

| Compound | IC50 at 70 h [nM] |
| --- | --- |
| CCn1c(-c2ccc(C(=N)N)cc2)nc2cc(C(=N)N)ccc21 | > 207000 |
| c1cc2nc(-c3ccc(C4=NCCN4)s3)[nH]c2cc1C1=NCCN1 | 129000 |
| N=C(N)c1ccc(-c2cc3ccc(C(=N)N)cc3[nH]2)cc1 [DAPI] | 860 |
| N=C(N)c1ccc2nc(-c3ccc(C(=N)N)o3)[nH]c2c1 | 150000 |
| Cn1c(-c2ccc(C(=N)N)cc2)nc2cc(C(=N)N)ccc21 | > 169000 |
| N=C(N)c1ccc(-c2nc3cc(C(=N)N)ccc3[nH]2)cc1 | 26300 |
| CCCn1c(-c2ccc(C(=N)N)cc2)nc2cc(C(=N)N)ccc21 | > 137000 |
| N=C(N)c1ccc(-c2nc3cc(C(=N)N)ccc3n2C2CCCCC2)cc1 | > 162000 |
| N=C(N)c1ccc(-c2nc3ccc(C(=N)N)cc3n2O)cc1 | > 210000 |
| N=C(N)c1ccc2nc(-c3ccc(C(=N)N)s3)[nH]c2c1 | 26700 |
